Measurements: publication PMC9822400, “The Lipophilic Purine Nucleoside—Tdp1 Inhibitor—Enhances DNA Damage Induced by Topotecan In Vitro and Potentiates the Antitumor Effect of Topotecan In Vivo” (Molecules, 2022)
Entries after “also recorded” stand apart in the source; their conditions may differ.

How the values were obtained:
recombinant human Tdp1 = target: T1, recombinant human Tdp1 (Homo sapiens, UniProt Q9NUW8); test: Steady-state kinetics of the Tdp1 reaction, type of inhibition (Vmax, KM); format: biochemical; conditions: dependence of Vmax and KM on inhibitor concentration
T1 construct: made in house
T1 sequence (Q9NUW8 whole entry): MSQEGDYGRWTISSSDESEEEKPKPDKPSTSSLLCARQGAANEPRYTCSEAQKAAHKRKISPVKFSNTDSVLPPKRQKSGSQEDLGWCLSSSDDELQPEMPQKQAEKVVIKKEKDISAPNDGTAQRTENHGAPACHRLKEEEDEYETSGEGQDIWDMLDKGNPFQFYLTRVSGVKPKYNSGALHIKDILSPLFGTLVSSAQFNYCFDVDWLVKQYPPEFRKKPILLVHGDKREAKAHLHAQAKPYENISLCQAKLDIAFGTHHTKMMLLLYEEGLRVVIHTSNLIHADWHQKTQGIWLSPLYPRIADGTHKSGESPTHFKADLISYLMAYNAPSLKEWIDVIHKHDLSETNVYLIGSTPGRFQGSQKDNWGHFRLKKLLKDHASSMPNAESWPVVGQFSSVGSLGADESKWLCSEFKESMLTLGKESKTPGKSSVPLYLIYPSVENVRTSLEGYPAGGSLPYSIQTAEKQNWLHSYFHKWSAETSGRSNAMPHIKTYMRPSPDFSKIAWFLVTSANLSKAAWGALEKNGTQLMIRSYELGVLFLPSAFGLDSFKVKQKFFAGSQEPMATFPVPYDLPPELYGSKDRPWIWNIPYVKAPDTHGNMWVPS
Experimental: Then, the values of the Vmax and KM parameters were calculated from the kinetic curves obtained. The conclusion about the type of inhibition was made based on the dependence type of the calculated parameters on the concentration of the inhibitor. […] Such inhibitors, supposedly, will be more specific inhibitors of Tdp1, because they will bind to the enzyme only in the presence of the enzyme-substrate complex. […] For this reason, this compound needs additional study of its inhibition mechanism by other methods.
To determine the kinetic parameters: apparent maximum rate of enzymatic reaction (Vmax), Michaelis constant (KM), and possible inhibition mechanism, steady-state kinetic experiments of Tdp1 enzymatic reaction were carried out at […] fixed concentrations of the substrate with various inhibitor concentrations. The standard reaction mixtures (200 μL) contained 56 nM, 96 nM, 163 nM, 277 nM, 470 nM or 800 nM oligonucleotide substrate, testable inhibitor, 1.5 nM recombinant human Tdp1 and reaction buffer components (50 mM Tris-HCl, pH 8.0, 50 mM NaCl, 7 mM β-mercaptoethanol). After the addition of the enzyme, the reaction mixtures were incubated at a constant temperature of 26 °C and measured in a POLARstar OPTIMA fluorimeter, BMG LABTECH, GmbH, to measure fluorescence every 55 s (Ex485/Em520 nm) during the linear phase (data from 0 to 8 minutes). The initial data (kinetic curves) were obtained in three independent experiments and statistically processed in the software OriginPro 8.6.0.

HeLa cells = test: Alkaline Comet assay, accumulation of DNA damage; format: cell-based; conditions: for Amount of DNA damage (% DNA in tail) in combination with Tpc compared to only Tpc: 10 μM Tpc + compound; for DNA in tail: 1 h; for Effect of the compound alone on the integrity of DNA: compound alone in concentrations up to 1 mM, compared to untreated or 1% DMSO
From the text: We studied the effect of Tdp1 inhibitors 5f and 6d on the accumulation of DNA damage by single-cell gel electrophoresis (Comet assay). […] This method has proven to be a simple, fast, and a quite sensitive way to detect DNA damage at the level of a single cell, allowing one to analyze almost any eukaryotic cell culture. Several analysis options allow one to visualize various types of DNA damage: single- and double-stranded breaks and alkaline-labile sites. This allows this method to be widely used in fundamental studies of DNA damage and repair and in testing the genotoxicity of new chemical and pharmaceutical drugs in vitro and in vivo [51, 52]. To study potential drugs, the alkaline version of the method (pH > 13) proposed by Singh and co-authors is widely used. This method allows the detection of all types of DNA damage with high sensitivity. In cells with a large amount of DNA damage, the structural organization and integrity of DNA are disrupted, which leads to its relaxation and/or fragmentation. As a result, cellular DNA in an electric field gives the observed objects the appearance of a “comet”.
Before studying the effect of Tdp1 inhibitors on the accumulation of DNA damage, it was necessary to find out how long the generation of DNA damage by Tpc and their repair take place in HeLa cells. To do this, cell culture was treated with Tpc at 1, 10, and 100 μM concentrations for 30 min, 1, 2, and 3 h and the level of damage to individual cells was monitored by Comet assay. It was shown that Tpc caused the greatest amount of damage after 30 minutes’ treatment. After this time, the repair systems began to correct these lesions and as a result, after 3 h most of them have been eliminated (Figure S9). […] The level of DNA damage at this point was enough to be detected, the data were reproducible, and can be evaluated by the Comet assay. The effect could be enhanced by the tested compounds without leading to cell death. It was important for us to see this enhancement in the presence of our compounds.
HeLa cell culture was grown in a 24-well plate to a concentration of 0.05 million/mL, then treated with the tested compounds and incubated for 1 h. To obtain a cell suspension, the cells were treated with trypsin (30 µL in each well for 5 min at 37 °C), and then 200 µL of PBS + 10% FBS were added to each well.
The resulting cell suspension (50 µL) was mixed with 250 µL of a 1% solution of molten low melting agarose (CertifiedTM LMAgarose; BIO-RAD), 250 µL of this mixture was transferred to the slides pre-coated with a 1% normal melting agarose (Agarose; Helicon), and left for several minutes at 4 °C to solidify. The resulting slides were incubated in a lysing solution (2.5 M NaCl, 100 mM EDTA, 10 mM Tris base, 1% Triton, 5% DMSO, pH 10.0) for an hour at 4 °C. Then the slides were immersed in an electrophoretic buffer (300 mM NaOH, 1 mM EDTA, pH > 13) for 45 min at 4 °C. Electrophoresis was performed at 20 V, 450 mA for 10 min while cooling on ice. After that, the slides were immersed 2 times for 5 min in 0.4 M Tris-HCl pH 7.5 solution for neutralization, washed twice with cold water, and stained with SYBR Green I (excitation maximum at 497 nm, emission maximum at 520 nm; Thermo Fisher Scientific KK).
The images were obtained using a CELENA © S digital microscope (Logos Biosystems, Inc., Annandale, VA, USA) and analyzed with Comet analysis software (Trevigen, Inc., Gaithersburg, MD, USA. In all experiments, 2 slides were evaluated for each sample by counting at least 200 cells on the glass. As a parameter for measuring the level of DNA damage, the median value of the percentage of DNA in the tail was chosen (% Tail DNA = 100 × the intensity of DNA fluorescence in the tail of the comet/the intensity of fluorescence of the total DNA of the comet).

[1] = compound 10 μM + Topotecan 10 μM
[2] = compound 50 μM + Topotecan 10 μM
[3] = compound 200 μM + Topotecan 10 μM

Row | SMILES | Type of inhibition of Tdp1 (recombinant human Tdp1) | Amount of DNA damage (% DNA in tail) in combination with Tpc compared to only Tpc (HeLa cells) | DNA in tail (HeLa cells; [1]) [%] | DNA in tail (HeLa cells; [2]) [%] | DNA in tail (HeLa cells; [3]) [%] | Effect of the compound alone on the integrity of DNA (HeLa cells) | Reduction of the topotecan dose required to produce a serious level of DNA damage (HeLa cells; Tpc 1 μM + 6d 5 μM similar to only Tpc 10 μM) [times]
1 | O[C@@H]1[C@H](O)[C@@H](COC(c2ccccc2)(c2ccccc2)c2ccccc2)O[C@H]1n1cnc2c(NC(c3ccccc3)(c3ccccc3)c3ccccc3)ncnc21 [compound 5f] | uncompetitive type of inhibition | did not significantly differ | 37±3 | 40±3 | 42±4 | did not affect the integrity of DNA | 
2 | O=C(OC[C@H]1O[C@@H](n2cnc3c(Cl)nc(F)nc32)[C@H](OC(=O)c2ccccc2)[C@@H]1OC(=O)c1ccccc1)c1ccccc1 [compound 6c, 2-Fluoro-6-chloro-9-(2,3,5-tri-O-benzoyl-β-D-ribofuranosyl)purine] | uncompetitive type of inhibition; also recorded: nonlinear dependence |  |  |  |  |  | 
3 | O=C(OC[C@H]1O[C@@H](n2cnc3c(Cl)nc(Cl)nc32)[C@H](OC(=O)c2ccccc2)[C@@H]1OC(=O)c1ccccc1)c1ccccc1 [compound 6d, 2,6-dichloro-9-(2,3,5-tri-O-benzoyl-β-D-ribofuranosyl)purine] | uncompetitive type of inhibition; also recorded: uncompetitive mechanism | increased the amount of DNA damage | 50±2 | 65±6 | 71±4 | did not affect the integrity of DNA; also recorded: does not cause DNA damage by itself | 10
